Reference: patent US20190216761A1, “COMPOSITIONS COMPRISING 15-HEPE AND METHODS OF USING THE SAME” (Afimmune Limited, priority 2015, published 2019)
Substitutions are numbered along the chain they refer to. Marks after values point to notes of the source that are not given here.

How the values were obtained:
[1] = test system: rPPARδ; assay: PPAR agonist reporter assay (Gal4 hybrid receptor, luciferase); format: cell-based, rat
Protocol: (§1) This study utilized proprietary reporter cells expressing a hybrid receptor comprising the N-terminal Gal4 DNA binding domain fused to the ligand binding domain of the specific human nuclear receptor (hPPARα, hPPARδ, and hPPARγ) and rat nuclear receptor (rPPARα, rPPARδ, and rPPARγ). The reporter vectors used in this Example comprise the firefly luciferase gene functionally linked to the Gal4 upstream activation sequence.
(§2) Nuclear Receptor assay was performed by dispensing 100 μL of a suspension of Reporter Cells in Cell Recovery Medium (CRM) containing 10% charcoal stripped FBS into each well of a white 96-well plate. Test compounds were diluted using compound screening medium (CSM) containing 10% charcoal stripped FBS to generate “2×-concentration” treatment media. Immediately after this dilution step, 100 μL of each diluted 2×-concentration treatment medium was dispensed (in triplicate) into the Reporter Cell-containing assay wells.
(§3) After incubation at 37° C. for 24 hours, the treatment media was discarded. 100 μL of Luciferase Detection Reagent substrate was added to each well and RLUs were quantified from each well to determine nuclear receptor activities.

[2] = target: T1, hPPARδ (Homo sapiens, UniProt Q03181); assay: as above; format: cell-based
T1 construct: expressed in transfected cells
T1 sequence (Q03181 211-439 limits assumed): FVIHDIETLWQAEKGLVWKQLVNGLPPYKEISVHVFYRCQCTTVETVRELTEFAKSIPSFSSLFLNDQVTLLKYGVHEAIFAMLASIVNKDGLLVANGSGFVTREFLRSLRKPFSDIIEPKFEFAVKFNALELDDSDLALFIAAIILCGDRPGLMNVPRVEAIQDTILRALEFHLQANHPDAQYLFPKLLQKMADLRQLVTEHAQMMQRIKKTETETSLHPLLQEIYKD
Protocol: as §1, §2, §3

[3] = target: T2, hPPARγ (Homo sapiens, UniProt P37231); assay: as above; format: cell-based
T2 construct: expressed in transfected cells
T2 sequence (P37231 238-503 limits assumed): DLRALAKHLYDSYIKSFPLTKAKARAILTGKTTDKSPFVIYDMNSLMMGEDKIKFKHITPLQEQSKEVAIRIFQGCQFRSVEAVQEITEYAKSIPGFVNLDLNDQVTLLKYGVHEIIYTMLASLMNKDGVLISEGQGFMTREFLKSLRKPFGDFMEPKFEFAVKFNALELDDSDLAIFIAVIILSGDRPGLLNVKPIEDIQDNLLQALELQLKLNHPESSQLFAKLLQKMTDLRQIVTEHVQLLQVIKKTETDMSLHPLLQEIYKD
Protocol: as §1, §2, §3

[4] = target: T3, rPPARα (Rattus norvegicus, UniProt P37230); assay: as above; format: cell-based
T3 construct: expressed in transfected cells
T3 sequence (P37230 239-466 limits assumed): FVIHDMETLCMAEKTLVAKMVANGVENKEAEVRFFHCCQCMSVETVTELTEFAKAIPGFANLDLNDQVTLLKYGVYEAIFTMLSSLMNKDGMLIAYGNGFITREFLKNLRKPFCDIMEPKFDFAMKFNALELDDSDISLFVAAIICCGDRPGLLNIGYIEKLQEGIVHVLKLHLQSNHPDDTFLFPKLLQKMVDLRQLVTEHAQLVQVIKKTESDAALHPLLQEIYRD
Protocol: as §1, §2, §3

[5] = target: T4, rPPARγ (Rattus norvegicus, UniProt O88275); assay: as above; format: cell-based
T4 construct: expressed in transfected cells
T4 sequence (O88275 238-503 limits assumed): T2 sequence (P37231 238-503 limits assumed) with S93N, V98I, L226V, Q245H
Protocol: as §1, §2, §3

[6] = test system: rPPARδ; assay: PPAR antagonist reporter assay (reference agonist at EC80); format: cell-based, rat
Protocol: as §1
Nuclear Receptor assay was performed by suspending Reporter Cells in CRM containing 10% charcoal stripped FBS. 2×-EC80 concentrations of the appropriate reference agonist were then added to the Reporter Cell suspension, and 100 μL of the mixture dispensed into wells of a white 96-well plate. Test compounds were diluted using compound screening medium (CSM) containing 10% charcoal stripped FBS to generate “2×-concentration” treatment media. Immediately after this dilution step, 100 μL of each diluted 2×-concentration treatment medium was dispensed (in triplicate) into the Reporter Cell-containing assay wells.
After incubation at 37° C. for 24 hours, the treatment media was discarded. Each well was rinsed once with LCM Buffer; LCM substrate was then added. After incubation for 30 minutes at 37° C., fluorescence was measured to determine the relative number of live cells per assay well. LCM substrate was then discarded and 100 μL of Luciferase Detection Reagent substrate was added to each well. RLUs were quantified from each well to determine nuclear receptor activities.

Question: What does the source list for `CC/C=C\C/C=C\C/C=C\C/C=C\C/C=C\CCCC(=O)OCC` [EPA-EE, EPA ethyl ester, reference compound]?
Answer: Fold-Activation (vs. 0.10% DMSO) rPPAR-δ ([1]; 137 nM): 1.3 fold; Fold-Activation (vs. 0.10% DMSO) rPPAR-δ ([1]; 412 nM): 1.3 fold; Fold-Activation (vs. 0.10% DMSO) rPPAR-δ ([1]; 1,235 nM): 1.2 fold; Fold-Activation (vs. 0.10% DMSO) rPPAR-δ ([1]; 3,704 nM): 1.5 fold; Fold-Activation (vs. 0.10% DMSO) rPPAR-δ ([1]; 11,111 nM): 1.4 fold; Fold-Activation (vs. 0.10% DMSO) rPPAR-δ ([1]; 33,333 nM): 1.5 fold; Fold-Activation (vs. 0.10% DMSO) rPPAR-δ ([1]; 100,000 nM): 2.0 fold; Fold-Activation (vs. 0.10% DMSO) rPPAR-δ ([1]; 300,000 nM): 3.6* fold; Fold-Activation (vs. 0.10% DMSO) hPPAR-δ ([2]; 137 nM): 1.2 fold; Fold-Activation (vs. 0.10% DMSO) hPPAR-δ ([2]; 412 nM): 1.2 fold; Fold-Activation (vs. 0.10% DMSO) hPPAR-δ ([2]; 1,235 nM): 1.3 fold; Fold-Activation (vs. 0.10% DMSO) hPPAR-δ ([2]; 3,704 nM): 1.5 fold; Fold-Activation (vs. 0.10% DMSO) hPPAR-δ ([2]; 11,111 nM): 1.4 fold; Fold-Activation (vs. 0.10% DMSO) hPPAR-δ ([2]; 33,333 nM): 1.8 fold; Fold-Activation (vs. 0.10% DMSO) hPPAR-δ ([2]; 100,000 nM): 2.6* fold; Fold-Activation (vs. 0.10% DMSO) hPPAR-δ ([2]; 300,000 nM): 3.8* fold; Fold-Activation (vs. 0.10% DMSO) hPPAR-γ ([3]; 137 nM): 0.90 fold; Fold-Activation (vs. 0.10% DMSO) hPPAR-γ ([3]; 412 nM): 0.94 fold; Fold-Activation (vs. 0.10% DMSO) hPPAR-γ ([3]; 1,235 nM): 0.94 fold; Fold-Activation (vs. 0.10% DMSO) hPPAR-γ ([3]; 3,704 nM): 0.88 fold; Fold-Activation (vs. 0.10% DMSO) hPPAR-γ ([3]; 11,111 nM): 1.0 fold; Fold-Activation (vs. 0.10% DMSO) hPPAR-γ ([3]; 33,333 nM): 0.78 fold; Fold-Activation (vs. 0.10% DMSO) hPPAR-γ ([3]; 100,000 nM): 1.2 fold; Fold-Activation (vs. 0.10% DMSO) hPPAR-γ ([3]; 300,000 nM): 2.8* fold; Fold-Activation (vs. 0.10% DMSO) rPPAR-α ([4]; 137 nM): 1.3 fold; Fold-Activation (vs. 0.10% DMSO) rPPAR-α ([4]; 412 nM): 1.3 fold; Fold-Activation (vs. 0.10% DMSO) rPPAR-α ([4]; 1,235 nM): 1.3 fold; Fold-Activation (vs. 0.10% DMSO) rPPAR-α ([4]; 3,704 nM): 1.3 fold; Fold-Activation (vs. 0.10% DMSO) rPPAR-α ([4]; 11,111 nM): 1.4 fold; Fold-Activation (vs. 0.10% DMSO) rPPAR-α ([4]; 33,333 nM): 1.3 fold; Fold-Activation (vs. 0.10% DMSO) rPPAR-α ([4]; 100,000 nM): 1.3 fold; Fold-Activation (vs. 0.10% DMSO) rPPAR-α ([4]; 300,000 nM): 1.5 fold; Fold-Activation (vs. 0.10% DMSO) rPPAR-γ ([5]; 137 nM): 0.90 fold; Fold-Activation (vs. 0.10% DMSO) rPPAR-γ ([5]; 412 nM): 0.94 fold; Fold-Activation (vs. 0.10% DMSO) rPPAR-γ ([5]; 1,235 nM): 0.99 fold; Fold-Activation (vs. 0.10% DMSO) rPPAR-γ ([5]; 3,704 nM): 0.97 fold; Fold-Activation (vs. 0.10% DMSO) rPPAR-γ ([5]; 11,111 nM): 0.97 fold; Fold-Activation (vs. 0.10% DMSO) rPPAR-γ ([5]; 33,333 nM): 0.99 fold; Fold-Activation (vs. 0.10% DMSO) rPPAR-γ ([5]; 100,000 nM): 1.0 fold; Fold-Activation (vs. 0.10% DMSO) rPPAR-γ ([5]; 300,000 nM): 2.1* fold; % Inhibition of agonist-stimulated receptor activity vs. 0.10% DMSO, rPPAR-δ ([6]; 137 nM): 26%; % Inhibition of agonist-stimulated receptor activity vs. 0.10% DMSO, rPPAR-δ ([6]; 412 nM): 4.0%; % Inhibition of agonist-stimulated receptor activity vs. 0.10% DMSO, rPPAR-δ ([6]; 1,235 nM): 5.7%; % Inhibition of agonist-stimulated receptor activity vs. 0.10% DMSO, rPPAR-δ ([6]; 3,704 nM): 8.1%; % Inhibition of agonist-stimulated receptor activity vs. 0.10% DMSO, rPPAR-δ ([6]; 11,111 nM): 3.7%; % Inhibition of agonist-stimulated receptor activity vs. 0.10% DMSO, rPPAR-δ ([6]; 33,333 nM): 7.2%; % Inhibition of agonist-stimulated receptor activity vs. 0.10% DMSO, rPPAR-δ ([6]; 100,000 nM): 10%; % Inhibition of agonist-stimulated receptor activity vs. 0.10% DMSO, rPPAR-δ ([6]; 300,000 nM): 36%; inhibition of rat PPARs (in words), rPPARδ ([6]; at higher test concentrations): does not exhibit similar inhibitory activity
